Data reported in US9499496B2, “Inhibitors of respiratory syncytial virus” (University of Kansas, priority 2012, dated 2016).
“And” between values parts separate entries of the source, which are not always exact repeats. Equal entries are not always repeated. Where two headings read alike, the source gives them in different places. Marks after values point to notes of the source that are not given here.

Experiments:
[1] = tested on: Calcium Channel L-Type, Benzothiazepine; experiment: Ricerca LeadProfiling screen; assay type: binding; settings: 10 μM, duplicate, rat
RSV [2] = experiment: Time of addition CPE assay; assay type: cell-based, RSV Long strain; settings: for Change in cell viability with time of addition: addition at time points between 7-24 hours post-infection
Procedure: Assay Description: HEp-2 cells were plated in 96 well black tissue culture plates at 10,000 cells per well in 80 μl and incubated 24 hours at 37° C., 5% CO2. All cell plating was conducted using a Matrix WellMate™ and cells were maintained at room temperature with stirring during the plating process. Compounds were diluted in media to give a final concentration of 25 μM and added to plates at −1, 0, 1, 4, 6, 20 and 24 hours post-infection (p.i.). The cells were infected with RSV Long strain at an MOI of 3 and the assay plates were incubated for six days at 37° C., 5% CO2 and 90% relative humidity.
The Cell Titer Glo® assay was used to determine viability of the cells. The assay plates were equilibrated to room temperature for 10 minutes and then an equal volume of Cell Titer-Glo reagent (Promega Inc.) was added to each well. Plates were incubated for 10 min at room temperature and luminescence was measured using a multi-label plate reader with an integration time of 0.1 s.
A cell-based assay was used to determine the ability of the probe to inhibit different stages of a single round of viral replication. […] Compounds B and F (diamonds and squares, respectively) are of similar chemical structure. The percent cell viability values at each time point for the respective molecules are compared with that of ribavirin (RBV). […] This sustained efficacy may be due to the inhibition of one or more late virus life cycle steps (post-entry or late-stage infection processes), and this hypothesis is supported by an ability to affect processes later in the viral replication cycle.

RSV [3] = experiment: RSV plaque reduction assay (titer reduction); assay type: cell-based, RSV Long strain; settings: HEp-2 cells; for Plaque Reduction Assay (log reduction) at 10 μM: 10 μM test compound; for Plaque Reduction Assay (log reduction): concentration not given
in vitro [4] = settings: human
influenza A = assay type: cell-based
[5] = tested on: Calcium Channel L-Type, Dihydropyridine; experiment: Ricerca LeadProfiling screen; assay type: binding; settings: 10 μM, duplicate, rat
[6] = tested on: Venezuelan equine encephalitis; assay type: cell-based
RSV [7] = experiment: RSV CPE assay (inhibition of RSV-induced cytopathic effect, luminescent cell viability readout); assay type: cell-based, RSV (strain Long); settings: for Selectivity Index (CC50/EC50): antiviral activity over HEp-2 cell cytotoxicity
dengue viruses = assay type: cell-based
[8] = tested on: Ricerca LeadProfiling screen made up of 67 assays; experiment: Ricerca LeadProfiling screen, all other targets of the 67 assays; assay type: binding; settings: 10 μM, duplicate
vaccinia = assay type: cell-based
[9] = Stability in PBS over 48 h; settings: for Stability in PBS (% parent remaining after 48 h), with acetonitrile: PBS with 50% acetonitrile; for Stability in PBS (% parent remaining after 48 h): no additives, 23° C.
HEp-2 cells = settings: HEp-2 cell cytotoxicity
physchem [10] = settings: plasma or biological fluid
physchem [11] = settings: 23 °C, pH 7.4, aqueous buffer
in vitro [12] = settings: PAMPA
[13] = human respiratory syncytial virus, HEp-2 cells, RSV-induced CPE, read-out: CPE Assay EC50

SMILES | Change in cell viability with time of addition (RSV [2]) | Plaque Reduction Assay (log reduction) at 10 μM (RSV [3]) | Plaque Reduction Assay (log reduction) (RSV [3]) | CC50 at 6 days (in vitro [4]; CC50, HEp-2 cell cytotoxicity) | EC50 (RSV [7]; [13]) | solubility (physchem [10]) | Selectivity Index (CC50/EC50) (RSV [7]) | solubility (physchem [11]) | other results
COCCCNC(=O)c1ccc(Cn2c(=O)c3ccccc3n(Cc3ccc(C(C)C)cc3)c2=O)cc1 [Compound A, 4-((1-(4-isopropylbenzyl)-2,4-dioxo-1,2-dihydroquinazolin-3(4H)-yl)methyl)-N-(3-methoxypropyl)benzamide] | does not result in a dramatic change in cell viability | 6.7 log reduction and 6.70 log reduction | 6.70 log reduction | > 200000 nM | – | – | – | – | Percent Inhibition [1]: 52%; Latest effective time of addition (RSV [2]; single round of viral replication, compound added −1 to 24 h post-infection): > 24 hours post-infection; Efficacy in inhibiting influenza A (influenza A): no efficacy; Percent Inhibition [5]: 70%; Efficacy in inhibiting Venezuelan equine encephalitis virus [6]: no efficacy; EC50 (RSV [7]; human respiratory syncytial virus, read-out: RSV CPE assay, repeated, repeat of the RSV CPE assay): 340 nM; EC50 (RSV [7]; read-out: CPE Assay EC50, HEp-2 cells, RSV-induced CPE): 810 nM; Efficacy in inhibiting dengue viruses (dengue viruses): no efficacy; Inhibition, all other targets [8]: below 34%; Efficacy in inhibiting vaccinia (vaccinia): no efficacy
COCCCNC(=O)c1ccc(Cn2c(=O)c3ccccc3n(Cc3ccc([N+](=O)[O-])cc3)c2=O)cc1 [Compound B, N-(3-methoxypropyl)-4-((1-(4-nitrobenzyl)-2,4-dioxo-1,2-dihydroquinazolin-3(4H)-yl)methyl)benzamide] | does not result in a dramatic change in cell viability | >5.56 log reduction | >5.56^a log reduction | 128000 ± 4240 nM | 570 ± 14 nM | – | – | – | Stability in PBS (% parent remaining after 48 h), with acetonitrile [9]: 94.9% (with; Stability in PBS (% parent remaining after 48 h) [9]: 83.4% (PBS);; CC50 (HEp-2 cells): > 128000 nM; EC50 (RSV [7]; human respiratory syncytial virus, repeat of the RSV CPE assay, read-out: RSV CPE assay, repeated): 200 nM
COCCCNC(=O)c1ccc(Cn2c(=O)c3ccccc3n(Cc3ccc(Br)cc3)c2=O)cc1 [Compound C, 4-((1-(4-bromobenzyl)-2,4-dioxo-1,2-dihydroquinazolin-3(4H)-yl)methyl)-N-(3-methoxypropyl)benzamide] | – | 4.07 log reduction | 4.07 log reduction | 98800 ± 8700 nM | 850 ± 150 nM | 2.7 µg/mL and 5.03 µM | 118.9 | 0.31 µg/mL and 0.58 µM | Stability in PBS (% parent remaining after 48 h), with acetonitrile [9]: 100% (with; Stability in PBS (% parent remaining after 48 h) [9]: 57.5% (PBS);
CCc1ccc(Cn2c(=O)n(Cc3ccc(C(=O)NCCCOC)cc3)c(=O)c3ccccc32)cc1 [Compound D, 4-((1-(4-ethylbenzyl)-2,4-dioxo-1,2-dihydroquinazolin-3(4H)-yl)methyl)-N-(3-methoxypropyl)benzamide] | – | 5.90 log reduction | 5.90 log reduction | 94800 ± 3750 nM | 1000 ± 50 nM | 1.5 µg/mL and 3.09 µM | 94.9 and 94.5 | – | –
CN(C)c1ccc(Cn2c(=O)n(Cc3ccc(C(=O)NCC4COC4)cc3)c(=O)c3ccccc32)cc1 [Compound E, 4-((1-(4-(dimethylamino)benzyl)-2,4-dioxo-1,2-dihydroquinazolin-3(4H)-yl)methyl)-N-(oxetan-3-ylmethyl)benzamide] | – | >6.18 log reduction | >6.18 log reduction | ~50000 nM | 1070 ± 220 nM | 9.2 µg/mL and 18.4 µM | 41.8 | 5.6 µg/mL and 11.2 µM | Plaque Reduction Assay (log reduction) (RSV [3]; listed as FIG. 5, entry 7): > 6 log reduction; CC50 (HEp-2 cells): 44700 ± 7220 nM
Cc1ccc(Cn2c(=O)n(Cc3ccc(C(=O)NCC4COC4)cc3)c(=O)c3ccccc32)cc1 [Compound F, 4-((1-(4-methylbenzyl)-2,4-dioxo-1,2-dihydroquinazolin-3(4H)-yl)methyl)-N-(oxetan-3-ylmethyl)benzamide] | does not result in a dramatic change in cell viability | 5.10 log reduction | 5.1 log reduction | – | 710 ± 130 nM | 4.5 µg/mL and 9.58 µM | – | 4.5 µg/mL and 0.75 µM | EC50 (RSV [7]; human respiratory syncytial virus, HEp-2 cells, read-out: CPE EC50 (potency) as given): ~700 nM
CNC(=C[N+](=O)[O-])NCCSCc1ccc(CN(C)C)o1 [Ranitidine] | – | – | – | – | – | – | – | – | Papp (in vitro [12]): < 10 ×10⁻⁶ cm/s; Papp (in vitro [12]; pH 7.4): < 10 ×10⁻⁶ cm/s
COCCCNC(=O)c1ccc(Cn2c(=O)c3ccccc3n(Cc3ccc(C)cc3)c2=O)cc1 [hit compound, 4-((1-(4-methylbenzyl)-2,4-dioxo-1,2-dihydroquinazolin-3(4H)-yl)methyl)-N-(3-methoxypropyl)benzamide] | – | – | 4.15 log reduction | 59500 nM | 2140 nM | – | – | – | –
NC(=O)c1ncn([C@@H]2O[C@H](CO)[C@@H](O)[C@H]2O)n1 [ribavirin, reference compound] | – | 2.47 log reduction | – | – | 28400 nM | – | – | – | Protection of cells from RSV-induced CPE (RSV [2]; added up to 7 hours post-infection): approximately 100%; CC50 at 6 days (in vitro [4]): 114000 ± 38500 nM
